Several values for one entry are separate records, joined by “and”; a condition that tells them apart may be missing. Equal values may be shown once. Inconclusive results and toxic doses are left out. Cut-off read from the data, not from the text of the source: active = T/C of 150% or more; inactive = T/C below 125%.
Tested on: L1210 leukemia ip in BDF1 mice, survival T/C
Test: NCI In Vivo Anticancer Drug Screen. Data for tumor model L1210 Leukemia (intraperitoneal) in B6D2F1 (BDF1) mice
Details: endpoint: mean survival time, higher = longer survival
How it was run: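 Tumor was transplanted into mice, which were then dosed with test compound or vehicle alone. Survival was recorded for each group, and the treated figure was expressed relative to the control figure.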

[1] = dose: 50.0 mg/kg/injection, schedule: Q01DX001 (ip), vehicle: carboxymethylcellulose (CMC)
[2] = dose: 100.0 mg/kg/injection, schedule: Q01DX001 (ip), vehicle: carboxymethylcellulose (CMC)
[3] = dose: 100.0 mg/kg/injection, schedule: Q01DX009 (ip), vehicle: saline with Tween-80
[4] = dose: 200.0 mg/kg/injection, schedule: Q01DX001 (ip), vehicle: carboxymethylcellulose (CMC)
[5] = dose: 200.0 mg/kg/injection, schedule: Q01DX009 (ip), vehicle: saline with Tween-80
[6] = dose: 400.0 mg/kg/injection, schedule: Q01DX001 (ip), vehicle: carboxymethylcellulose (CMC)
[7] = dose: 400.0 mg/kg/injection, schedule: Q01DX009 (ip), vehicle: saline with Tween-80
[8] = dose: 100.0 mg/kg/injection, schedule: Q01DX009 (ip), vehicle: Klucel (hydroxypropylcellulose) (HPC)
[9] = dose: 200.0 mg/kg/injection, schedule: Q01DX009 (ip), vehicle: Klucel (hydroxypropylcellulose) (HPC)
[10] = dose: 400.0 mg/kg/injection, schedule: Q01DX009 (ip), vehicle: Klucel (hydroxypropylcellulose) (HPC)
[11] = dose: 100.0 mg/kg/injection, schedule: Q04DX003 (ip), vehicle: saline with Tween-80
[12] = dose: 200.0 mg/kg/injection, schedule: Q04DX003 (ip), vehicle: saline with Tween-80
[13] = dose: 400.0 mg/kg/injection, schedule: Q04DX003 (ip), vehicle: saline with Tween-80
[14] = dose: 100.0 mg/kg/injection, schedule: Q01DX001 (ip), vehicle: saline
[15] = dose: 200.0 mg/kg/injection, schedule: Q01DX001 (ip), vehicle: saline
[16] = dose: 400.0 mg/kg/injection, schedule: Q01DX001 (ip), vehicle: saline
[17] = dose: 100.0 mg/kg/injection, schedule: Q04DX003 (ip), vehicle: Klucel (hydroxypropylcellulose) (HPC)
[18] = dose: 100.0 mg/kg/injection, schedule: Q04DX002 (ip), vehicle: saline with Tween-80
[19] = dose: 200.0 mg/kg/injection, schedule: Q04DX002 (ip), vehicle: saline with Tween-80
[20] = dose: 400.0 mg/kg/injection, schedule: Q04DX002 (ip), vehicle: saline with Tween-80

Measured: T/C

COc1ccc(OC)c2c1C(=O)c1ccccc1C2=O
inactive: dose: 25.0 mg/kg/injection, schedule: Q01DX009 (ip), vehicle: saline with Tween-80 107 % of control | [1] 102 % of control | dose: 50.0 mg/kg/injection, schedule: Q01DX009 (ip), vehicle: saline with Tween-80 104 % of control | [2] 108 % of control | [3] 104 % of control | [4] 102 % of control | [5] 107 % of control | [6] 113 % of control | [7] 111 % of control

O=S(=O)(Nc1cccc2ccccc12)c1ccc(Cl)cc1
inactive: [8] 102 % of control | [9] 87 % of control | [10] 95 % of control

O=S(=O)(OCCCl)OCCCl
inactive: dose: 25.0 mg/kg/injection, schedule: Q01DX010 (ip), vehicle: olive oil, sesame oil, peanut oil 100 % of control | dose: 37.5 mg/kg/injection, schedule: Q01DX010 (ip), vehicle: olive oil, sesame oil, peanut oil 102 % of control | dose: 50.0 mg/kg/injection, schedule: Q01DX010 (ip), vehicle: olive oil, sesame oil, peanut oil 97 % of control

O=S(=O)(c1ccc(Br)cc1)c1ccc(Br)cc1
inactive: [11] 98 % of control | [12] 98 % of control | [13] 104 % of control

O=C(Nc1ccccc1C(F)(F)F)c1ccc(Cl)cc1Cl
inactive: [3] 91 % of control | [11] 94 % of control | [5] 96 % of control | [12] 92 % of control | [7] 89 % of control | [13] 95 % of control

CC1C(=O)C2C(CCC3=CC(=O)CCC32C)C2CCC(C(C)(C)OCCO)C12C (configuration not stated)
inactive: dose: 50.0 mg/kg/injection, schedule: Q01DX001 (sc), vehicle: steriod suspending solution 105 % of control | dose: 100.0 mg/kg/injection, schedule: Q01DX001 (sc), vehicle: steriod suspending solution 102 % of control | dose: 200.0 mg/kg/injection, schedule: Q01DX001 (sc), vehicle: steriod suspending solution 107 % of control | dose: 400.0 mg/kg/injection, schedule: Q01DX001 (sc), vehicle: steriod suspending solution 96 % of control

COc1ccc(C2NC(=S)N3C(c4ccc(OC)c(OC)c4)NC(=S)N23)cc1OC (configuration not stated)
inactive: dose: 100.0 mg/kg/injection, schedule: Q01DX009 (ip), vehicle: gum acacia 88 % of control | dose: 100.0 mg/kg/injection, schedule: Q04DX003 (ip), vehicle: gum acacia 95 % of control | dose: 200.0 mg/kg/injection, schedule: Q01DX009 (ip), vehicle: gum acacia 88 % of control | dose: 200.0 mg/kg/injection, schedule: Q04DX003 (ip), vehicle: gum acacia 89 % of control | dose: 400.0 mg/kg/injection, schedule: Q01DX009 (ip), vehicle: gum acacia 90 % of control

CN(C)C(=O)N/C=C/NC(=O)N(C)C
inactive: dose: 12.5 mg/kg/injection, schedule: Q04DX002 (ip), vehicle: saline with Tween-80 92 % of control | dose: 25.0 mg/kg/injection, schedule: Q04DX002 (ip), vehicle: saline with Tween-80 89 % of control | dose: 50.0 mg/kg/injection, schedule: Q04DX002 (ip), vehicle: saline with Tween-80 106 % of control

CCOC(=O)C(C(=O)O)(C(c1ccccc1)c1ccccc1)C(c1ccccc1)c1ccccc1
inactive: dose: 75.0 mg/kg/injection, schedule: Q01DX001 (ip), vehicle: carboxymethylcellulose (CMC) 90 % of control

CC(C)(Oc1ccc(Cl)cc1)C(=O)O
inactive: [14] 101 % of control | [15] 101 % of control | [16] 98 % of control

O=C(O)C1C2CC3OCC1C3C2 (configuration not stated)
inactive: dose: 100.0 mg/kg/injection, schedule: Q04DX003 (ip), vehicle: alkali diluted with saline 104 % of control | dose: 200.0 mg/kg/injection, schedule: Q04DX003 (ip), vehicle: alkali diluted with saline 98 % of control | dose: 400.0 mg/kg/injection, schedule: Q04DX003 (ip), vehicle: alkali diluted with saline 93 % of control

CC(C)(O)CNCCCN
inactive: dose: 75.0 mg/kg/injection, schedule: Q01DX001 (ip), vehicle: saline 96 % of control | dose: 150.0 mg/kg/injection, schedule: Q01DX001 (ip), vehicle: saline 94 % of control | dose: 300.0 mg/kg/injection, schedule: Q01DX001 (ip), vehicle: saline 102 % of control

CCOc1nc(N)nc2n[nH]nc12
inactive: dose: 82.0 mg/kg/injection, schedule: Q01DX Z (ip), vehicle: carboxymethylcellulose (CMC) 93 % of control | dose: 175.0 mg/kg/injection, schedule: Q01DX Z (ip), vehicle: carboxymethylcellulose (CMC) 112 % of control | dose: 262.0 mg/kg/injection, schedule: Q01DX Z (ip), vehicle: carboxymethylcellulose (CMC) 95 % of control

CCOC(=O)C1CC(Cl)c2c(ccc3cc(OC)ccc23)N1 (configuration not stated)
inactive: dose: 25.0 mg/kg/injection, schedule: Q01DX001 (ip), vehicle: carboxymethylcellulose (CMC) 100 % of control | dose: 25.0 mg/kg/injection, schedule: Q01DX009 (ip), vehicle: carboxymethylcellulose (CMC) 98 % of control and 92 % of control | dose: 25.0 mg/kg/injection, schedule: Q04DX002 (ip), vehicle: carboxymethylcellulose (CMC) 93 % of control and 95 % of control | dose: 25.0 mg/kg/injection, schedule: Q04DX003 (ip), vehicle: carboxymethylcellulose (CMC) 97 % of control | [1] 107 % of control | dose: 50.0 mg/kg/injection, schedule: Q01DX009 (ip), vehicle: carboxymethylcellulose (CMC) 100 % of control and 91 % of control | dose: 50.0 mg/kg/injection, schedule: Q04DX002 (ip), vehicle: carboxymethylcellulose (CMC) 101 % of control and 103 % of control | dose: 50.0 mg/kg/injection, schedule: Q04DX003 (ip), vehicle: carboxymethylcellulose (CMC) 95 % of control | dose: 100.0 mg/kg/injection, schedule: Q01DX009 (ip), vehicle: carboxymethylcellulose (CMC) 93 % of control | dose: 100.0 mg/kg/injection, schedule: Q04DX002 (ip), vehicle: carboxymethylcellulose (CMC) 95 % of control and 108 % of control | dose: 100.0 mg/kg/injection, schedule: Q04DX003 (ip), vehicle: carboxymethylcellulose (CMC) 95 % of control

[Co+2].[N-]=Cc1ccccc1O.[N-]=Cc1ccccc1O
inactive: dose: 25.0 mg/kg/injection, schedule: Q04DX003 (ip), vehicle: Klucel (hydroxypropylcellulose) (HPC) 110 % of control | dose: 50.0 mg/kg/injection, schedule: Q04DX003 (ip), vehicle: Klucel (hydroxypropylcellulose) (HPC) 113 % of control | [17] 99 % of control and 118 % of control

NOc1ccc([N+](=O)[O-])cc1[N+](=O)[O-]
inactive: [11] 108 % of control

CSc1nc(N)nc2c1ncn2C1OC(CO)CC1O (configuration not stated)
inactive: [14] 107 % of control | [15] 104 % of control | [16] 115 % of control

CC(C)(COC(=O)c1ccccc1)COC(=O)c1ccccc1
inactive: [8] 116 % of control | [17] 96 % of control | [9] 93 % of control | dose: 200.0 mg/kg/injection, schedule: Q04DX003 (ip), vehicle: Klucel (hydroxypropylcellulose) (HPC) 107 % of control | [10] 93 % of control | dose: 400.0 mg/kg/injection, schedule: Q04DX003 (ip), vehicle: Klucel (hydroxypropylcellulose) (HPC) 98 % of control

Clc1nc(Cl)n2c(Cl)cncc12
inactive: dose: 25.0 mg/kg/injection, schedule: Q04DX003 (ip), vehicle: saline with Tween-80 96 % of control | dose: 50.0 mg/kg/injection, schedule: Q04DX003 (ip), vehicle: saline with Tween-80 103 % of control | [11] 96 % of control

CCc1ccccc1NC(=O)COc1ccc(Cl)cc1
inactive: [8] 98 % of control | [9] 96 % of control | [10] 91 % of control

COC1OC2COC(c3ccccc3)OC2C(OS(=O)(=O)c2ccc(C)cc2)C1OC (configuration not stated)
inactive: [18] 107 % of control | [19] 89 % of control | [20] 93 % of control

COC(=O)c1ccc(N(C)CC/C(CN)=N/NC(N)=O)cc1
inactive: [2] 96 % of control | [4] 96 % of control | [6] 102 % of control

CN=C(N)N(C)/N=C/c1ccccc1
inactive: dose: 87.5 mg/kg/injection, schedule: Q04DX003 (ip), vehicle: Klucel (hydroxypropylcellulose) (HPC) 105 % of control

CC#CCCC(=O)OCCC
inactive: [18] 121 % of control | [19] 93 % of control | [20] 108 % of control

O=C1C(c2ccc(O)cc2)C2C=CC(C2)N1O (configuration not stated)
inactive: [14] 95 % of control | [15] 103 % of control | [16] 95 % of control
